# Assay results from patent US20230321140A1, “MULTIPLE MEDIATORS TARGETED MULTIFUNCTIONAL NANOPARTICLES AND USES THEREOF” (The Trustees of Columbia University in the City of New York, priority 2022, published 2023).
# What was measured:
# [1] = test system: calf thymus DNA; experiment: PicoGreen DNA binding affinity assay; details: TE buffer without FBS; calf thymus DNA 0.5 μg/mL
# Protocol: FIGS. 2A-B show DNA binding affinity of NPs at different NP:DNA mass ratios (see legend) in TE buffer without Fetal Bovine Serum (FBS) (A) and with 10% FBS (B). [Calf thymus DNA]=0.5 μg/mL. (C) Cytotoxicity of NPs to RAW 264.7 cells. (D) Colocalization of FITC-labeled TA-Zn-Gen NPs and Cy5-labeled CpG in lysosomes (CLSM images). Scale bar, 10 μm. Quant-iT PicoGreen (12.5 μL) and calf thymus DNA ([…], 25 μL) were mixed with 1×TE buffer (10 mL) in the dark. NPs at different concentrations in 100 μL together with 100 μL of the above solution were added to a 96-well black plate and incubated at 37° C. for 30 min. The fluorescence intensity of the Picogreen-DNA complex at 520 nm was measured with a multiwell plate reader via excitation at 490 nm.
# [2] = test system: E. coli; experiment: Antibacterial effect (OD 600 nm); type: cell-based, Escherichia coli; details: 6 h and 12 h
# Protocol: E. coli was used to investigate the anti-bacterial effect of NPs. E. coli diluted in Luria-Bertani liquid medium were seeded in a 96-well plate at a density of 10^6/mL and were treated with NPs at different concentrations. After 6 h and 12 h of incubation with NPs at 37° C., the proliferation of bacteria was determined with a multiwell plate reader by measuring the OD at 600 nm.
compound,measurement,setting,value
O=C(OC[C@H]1O[C@@H](OC(=O)c2cc(O)c(O)c(OC(=O)c3cc(O)c(O)c(O)c3)c2)[C@H](OC(=O)c2cc(O)c(O)c(OC(=O)c3cc(O)c(O)c(O)c3)c2)[C@@H](OC(=O)c2cc(O)c(O)c(OC(=O)c3cc(O)c(O)c(O)c3)c2)[C@@H]1OC(=O)c1cc(O)c(O)c(OC(=O)c2cc(O)c(O)c(O)c2)c1)c1cc(O)c(O)c(OC(=O)c2cc(O)c(O)c(O)c2)c1 [tannic acid],DNA binding affinity,[1],also exhibited DNA binding
same,"antibacterial activity, NPs versus free components",[2],slight antibacterial activity at a high concentration
gentamicin,"antibacterial activity, NPs versus free components",[2],potent concentration-dependent antibacterial effect
